Results reported in ChEMBL document CHEMBL5104126, “Discovery of 2,3-dihydro-1H-pyrrolo[3,4-b]quinolin-1-one derivatives as possible antileishmanial agents” (RSC Med Chem, 2022).

How the values were obtained:
J774 [1] = experiment: Cytotoxicity against mouse macrophage J774 cells assessed as reduction in cell viability at 50 to 100 uM incubated for 72 hrs by MTT assay; assay type: toxicity, cell-based; settings: j774, 72 h, dose 50-100 µM
Leishmania donovani [2] = experiment: Antileishmanial activity against Leishmania donovani MHOM/IN/80/Dd8 amastigotes harboring luciferase gene infected in mouse J774 cells assessed as inhibition of parasite viability incubated for 72 hrs by Steady-Glo reagent based luciferase assay relative to control; assay type: functional, organism-based; settings: MHOM/IN/80/Dd8, J774, 72 h
Leishmania donovani [3] = experiment: Antileishmanial activity against Leishmania donovani MHOM/IN/80/Dd8 promastigotes harboring luciferase gene infected in mouse J774 cells assessed as inhibition of parasite viability at 25 uM incubated for 72 hrs by Steady-Glo reagent based luciferase assay relative to control; assay type: functional; settings: MHOM/IN/80/Dd8, J774
Leishmania donovani [4] = experiment: Antileishmanial activity against Leishmania donovani MHOM/IN/80/Dd8 amastigotes harboring luciferase gene infected in mouse J774 cells assessed as inhibition of parasite viability at 25 uM incubated for 72 hrs by Steady-Glo reagent based luciferase assay relative to control; assay type: functional; settings: MHOM/IN/80/Dd8, J774
J774 [5] = experiment: Cytotoxicity against mouse macrophage J774 cells assessed as reduction in cell viability at 6.25 to 25 uM incubated for 72 hrs by MTT assay; assay type: toxicity, cell-based; settings: j774, 72 h, dose 6.25-25 µM
Leishmania donovani [6] = experiment: Antileishmanial activity against Leishmania donovani MHOM/IN/80/Dd8 promastigotes harboring luciferase gene infected in mouse J774 cells assessed as inhibition of parasite viability incubated for 72 hrs by Steady-Glo reagent based luciferase assay relative to control; assay type: functional, organism-based; settings: MHOM/IN/80/Dd8, J774, 72 h
[7] = Cytotoxicity against human HepG2 cells assessed as inhibition of cell viability incubated for 72 hrs by MTT assay; assay type: toxicity, cell-based
Leishmania donovani [8] = experiment: Antileishmanial activity against Leishmania donovani MHOM/IN/80/Dd8 promastigotes infected in Balb/c mouse assessed as inhibition organ parasite burden in liver at 25 mg/kg, ip for 7 days by Giemsa staining based microscopy; assay type: functional; settings: MHOM/IN/80/Dd8, 168 h, time 7 day
[9] = Selectivity index, ratio of CC50 for cytotoxicity against human HepG2 cells to IC50 for antileishmanial activity against Leishmania donovani MHOM/IN/80/Dd8 amastigotes harboring luciferase gene infected in mouse J774 cells; assay type: toxicity, cell-based; settings: read-out: Ratio CC50/IC50
[10] = Selectivity index, ratio of CC50 for cytotoxicity against mouse macrophage J774 cells to IC50 for antileishmanial activity against Leishmania donovani MHOM/IN/80/Dd8 amastigotes harboring luciferase gene infected in mouse J774 cells; assay type: toxicity, cell-based; settings: read-out: Ratio CC50/IC50
Leishmania donovani [11] = experiment: Antileishmanial activity against Leishmania donovani MHOM/IN/80/Dd8 promastigotes infected in Balb/c mouse assessed as inhibition organ parasite burden in spleen at 25 mg/kg, ip for 7 days by Giemsa staining based microscopy; assay type: functional; settings: MHOM/IN/80/Dd8, 168 h, time 7 day
[12] = Cytotoxicity against mouse macrophage J774 cells assessed as inhibition of cell viability incubated for 72 hrs by MTT assay; assay type: toxicity, cell-based
Leishmania mexicana = experiment: Antileishmanial activity against Leishmania mexicana 227 assessed as inhibition of parasite viability; assay type: functional, organism-based

Structure (SMILES)	Activity (J774 [1])	inhibition at 25 µM (Leishmania donovani [3])	inhibition at 25 µM (Leishmania donovani [4])	Activity (J774 [5])	further results
CC(C)(C)NC(=O)C(C)(C)N1Cc2nc3ccc(Br)cc3c(-c3ccccc3)c2C1=O	>= 30%	> 70%	45%	Non-Toxic	IC50 (Leishmania donovani [2]): 10.3 µM
CCCCCCCCCCCCCCCCOP(=O)([O-])OCC[N+](C)(C)C [MILTEFOSINE]					IC50 (Leishmania donovani [6]): 6.12 µM; IC50 (Leishmania donovani [2]): 6.86 µM; CC50 at 72 h [7]: 78.6 µM; inhibition in vivo at 25 mg/kg (Leishmania donovani [8]): 97.4%; selectivity ratio [9]: 12.8; selectivity ratio [10]: 11.8; inhibition in vivo at 25 mg/kg (Leishmania donovani [11]): 98.9%; CC50 at 72 h [12]: 72.4 µM
COc1ccc2nc3c(c(-c4ccccc4)c2c1)C(=O)N(C(C(=O)NC(C)(C)C)c1ccc(O)cc1)C3 (stereo unspecified)	>= 30%	40%	45%	Non-Toxic	
COc1ccc2nc3c(c(-c4ccccc4)c2c1)C1=NC(=O)C(C)(C)N1C3	>= 30%	39%	31%	Non-Toxic	
COc1ccc2nc3c(c(-c4ccccc4)c2c1)C(=O)N(C(C(N)=O)c1ccc(F)cc1)C3 (stereo unspecified)	>= 30%	61%	46%	Non-Toxic	IC50 (Leishmania donovani [2]): 8.75 µM
COc1ccc2nc3c(c(-c4ccccc4)c2c1)C1=NC(=O)C2(CCCC2)N1C3	>= 30%	39%	31%	Non-Toxic	
COc1ccc(C(C(=O)NC(C)(C)C)N2Cc3nc4ccc(OC)cc4c(-c4ccccc4)c3C2=O)cc1 (stereo unspecified)	>= 30%	40%	45%	Non-Toxic	
COc1ccc2nc3c(c(-c4ccccc4)c2c1)C(=O)N(C1(C(=O)NC(C)(C)C)CCCCC1)C3	>= 30%	> 70%	45%	Non-Toxic	IC50 (Leishmania donovani [2]): 5.35 µM
COc1ccc2nc3c(c(-c4ccccc4)c2c1)C(=O)N(CC(=O)NC(C)(C)C)C3	>= 30%	40%	45%	Non-Toxic	IC50 (Leishmania donovani [2]): 8.39 µM
CC(C)(C(N)=O)N1Cc2nc3ccc(Cl)cc3c(-c3ccccc3)c2C1=O	>= 30%	61%	46%	Non-Toxic	
COc1ccc2nc3c(c(-c4ccccc4)c2c1)C(=O)N(C(C(=O)NC(C)(C)C)c1ccc(C#N)cc1)C3 (stereo unspecified)	>= 30%	40%	45%	Non-Toxic	
CC1(C)C(=O)N=C2c3c(nc4ccc(Br)cc4c3-c3ccccc3)CN21	>= 30%	39%	31%	Non-Toxic	
COc1ccc2nc3c(c(-c4ccccc4)c2c1)C(=O)N(C(C(=O)NC(C)(C)C)c1ccc(F)cc1)C3 (stereo unspecified)	>= 30%	40%	45%	Non-Toxic	
CC(C)(C)NC(=O)C(C)(C)N1Cc2nc3ccc(O)cc3c(-c3ccccc3)c2C1=O	>= 30%	77.2%	69%	Non-Toxic	
COc1ccc2nc3c(c(-c4ccccc4)c2c1)C1=NC(=O)C(c2ccc(C#N)cc2)N1C3 (stereo unspecified)	>= 30%	39%	31%	Non-Toxic	
CC(C)(C)NC(=O)C(c1ccc(F)cc1)N1Cc2nc3ccc(O)cc3c(-c3ccccc3)c2C1=O (stereo unspecified)	>= 30%	72.7%	69%	Non-Toxic	

Structure (SMILES)	Activity (J774 [1])	inhibition at 25 µM (Leishmania donovani [3])	inhibition at 25 µM (Leishmania donovani [4])	Activity (J774 [5])	further results
COc1ccc2nc3c(c(-c4ccccc4)c2c1)C1=NC(=O)C(c2ccc(Cl)cc2)N1C3 (stereo unspecified)	>= 30%	39%	31%	Non-Toxic	
COc1ccc2nc3c(c(-c4ccccc4)c2c1)C1=NC(=O)C(c2cc(OC)c(OC)c(OC)c2)N1C3 (stereo unspecified)	>= 30%	39%	31%	Non-Toxic	
COc1ccc2nc3c(c(-c4ccccc4)c2c1)C(=O)N(C(C(=O)NC(C)(C)C)c1ccccc1)C3 (stereo unspecified)	>= 30%	> 70%	45%	Non-Toxic	
COc1ccc2nc3c(c(-c4ccccc4)c2c1)C(=O)N(C(C(=O)NC(C)(C)C)c1ccc(Cl)cc1)C3 (stereo unspecified)	>= 30%	40%	45%	Non-Toxic	IC50 (Leishmania donovani [2]): 10.5 µM
COc1ccc2nc3c(c(-c4ccccc4)c2c1)C(=O)N(C(C(=O)NC(C)(C)C)c1cc(OC)c(OC)c(OC)c1)C3 (stereo unspecified)	>= 30%	40%	45%	Non-Toxic	
COc1ccc2nc3c(c(C)c2c1)C(=O)N(C(C)(C)C(=O)NC(C)(C)C)C3	>= 30%	> 70%	45%	Non-Toxic	IC50 (Leishmania donovani [2]): 7.42 µM
COc1ccc2nc3c(c(-c4ccccc4)c2c1)C1=NC(=O)C(c2ccccc2)N1C3 (stereo unspecified)	>= 30%	39%	31%	Non-Toxic	
COc1ccc2nc3c(c(-c4ccccc4)c2c1)C(=O)N(C(C(=O)NC(C)(C)C)c1ccc(C(F)(F)F)cc1)C3 (stereo unspecified)	>= 30%	> 70%	45%	Non-Toxic	
CC(C)(C(N)=O)N1Cc2nc3ccccc3c(-c3ccccc3)c2C1=O	>= 30%	61%	46%	Non-Toxic	
COc1ccc2nc3c(c(-c4ccccc4)c2c1)C(=O)N(C(C)(C)C(=O)NC(C)(C)C)C3	>= 30%	40%	45%	Non-Toxic	
CCCCCCOc1c(OC)cc(NC(C)CCCN)c2nccc(C)c12 (stereo unspecified) [WR-242511]					IC50 (Leishmania mexicana): 2.5 µM
CC(C)(C)NC(=O)C(C)(C)N1Cc2nc3ccccc3c(-c3ccccc3)c2C1=O	>= 30%	40%	45%	Non-Toxic	
COc1ccc2nc3c(c(-c4ccccc4)c2c1)C(=O)N(C1(C(=O)NC(C)(C)C)CCCC1)C3	>= 30%	40%	45%	Non-Toxic	
COc1ccc2nc3c(c(-c4ccccc4)c2c1)C1=NC(=O)C(c2ccc(Br)cc2)N1C3 (stereo unspecified)	>= 30%	39%	31%	Non-Toxic	
COc1ccc2nc3c(c(-c4ccccc4)c2c1)C1=NC(=O)C2(CCCCC2)N1C3	>= 30%	39%	31%	Non-Toxic	
